The record followed here is ChEMBL document CHEMBL1201862, “PubChem BioAssay data set” (2004).

The structures appear in SMILES notation.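 Assay format: 96-well plates, 48-hour exposure. At the GI50, growth is halved.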 Activity calls are given as the source filed them. No stated cut-off is given here; in the data, active = GI50 up to about 1.1 µM and inactive = higher.

Test systems include SF-268; U-251; MOLT-4; UACC-62; SNB-19; CAKI-1; SF-539; OVCAR-4; HL-60; HCT-116; DLD-1; NCI-H522; M14; SNB-78; HOP-62; LOX IMVI; NCI/ADR-RES; MCF7; PC-3; MDA-MB-435.
What all share (assay): growth of human tumour cells (NCI), 48 h

As for `CCN(CC)CC(=N)N(CC)c1ccccc1`, the GI50 in the test on SF-268, in the test with U-251, in the test on MOLT-4, in the test on UACC-62, in the test with SNB-19 and in the test on CAKI-1 was > 100 µM (inactive) in each case. Moreover, the GI50 in the test with SF-539, in the test on OVCAR-4, in the test on HL-60, with HCT-116, in the test with DLD-1 and in the test with NCI-H522 was > 100 µM (inactive) in each case. Further, the GI50 in the test with M14, in the test on SNB-78, with HOP-62 and in the test with LOX IMVI was > 100 µM (inactive) in each case.
With `CSC(=N)NNC(=O)CCC(=O)Nc1ccccc1C(F)(F)F`, the GI50 in the test on SF-268, in the test on U-251, in the test with MOLT-4, in the test on UACC-62, in the test with SNB-19 and with CAKI-1 was > 100 µM (inactive) in each case. Further, the GI50 in the test on SF-539 was > 79.8 µM (inactive); with OVCAR-4 it was > 100 µM (inactive); in the test on HCT-116, > 100 µM (inactive); in the test with DLD-1, > 100 µM (inactive); in the test on NCI-H522, > 100 µM (inactive); with M14, > 100 µM (inactive). Further, the GI50 in the test with SNB-78 was > 61.5 µM (inactive); in the test on HOP-62 it was > 100 µM (inactive); with LOX IMVI, > 100 µM (inactive).
Regarding `CCCCC1=C(Br)C(=C(Br)Br)OC1=O`, the GI50 in the test on SF-268 was 2.61 µM (inactive); with U-251, 5.47 µM (inactive); in the test with MOLT-4 it was 1.83 µM (inactive); with UACC-62, 2.42 µM (inactive); with SNB-19, 7.89 µM (inactive); in the test with CAKI-1, 2.15 µM (inactive). Further, the GI50 in the test with SF-539 is 3.26 µM (inactive); in the test on OVCAR-4, 1.79 µM (inactive); in the test with HL-60, 1.85 µM (inactive); with HCT-116, 3.02 µM (inactive); in the test with DLD-1, 1.9 µM (inactive); with NCI/ADR-RES, 4.14 µM (inactive). Further, the GI50 was 1.86 µM (inactive) in the test with NCI-H522; 6.01 µM (inactive) with SNB-78; 3.54 µM (inactive) in the test with MCF7; 7.96 µM (inactive) with HOP-62; 1.87 µM (inactive) with LOX IMVI.
As for `COC(=O)C1OC(Oc2cc(O)c3c(=O)cc(-c4ccc(O)cc4)oc3c2)C(O)C(O)C1O` (centres undefined), the GI50 with SF-268, with U-251, in the test on MOLT-4, in the test on UACC-62, in the test with SNB-19 and with CAKI-1 was > 100 µM (inactive) each time. Further, the GI50 in the test with SF-539, in the test on OVCAR-4, in the test on HL-60, in the test with HCT-116, in the test with DLD-1 and in the test on NCI/ADR-RES was > 100 µM (inactive) each time. Moreover, the GI50 with NCI-H522, in the test on SNB-78, in the test on MCF7, in the test with HOP-62 and in the test with LOX IMVI was > 100 µM (inactive) each time.
In the case of `O=C(NC1C(O)C(O)C(CO)OC1n1cc(F)c(=O)[nH]c1=O)OCc1ccccc1` (centres undefined), the GI50 with SF-268, in the test with U-251, in the test with SNB-19, in the test on CAKI-1, with OVCAR-4 and in the test with HL-60 was > 100 µM (inactive) each time. The GI50 in the test on HCT-116, in the test with DLD-1, with NCI-H522, in the test on M14, in the test on SNB-78 and in the test on HOP-62 was > 100 µM (inactive) in each case. Besides, the GI50 in the test with LOX IMVI is > 100 µM (inactive).
For `CCCCC(NC(=O)CC)C(=O)O` (centres undefined), the GI50 in the test with SF-268, with U-251, with MOLT-4, in the test on UACC-62, with SNB-19 and in the test with CAKI-1 was > 100 µM (inactive) each time. Besides, the GI50 with SF-539, with OVCAR-4, in the test on HL-60, in the test with HCT-116, in the test on DLD-1 and with NCI/ADR-RES was > 100 µM (inactive) each time. The GI50 in the test with NCI-H522, with SNB-78, in the test with MCF7, in the test with HOP-62 and in the test on LOX IMVI was > 100 µM (inactive) throughout.
Take `Cc1c2cc[n+](C)cc2c(C)c2c1[nH]c1ccc(O)cc12` [ELLIPTINIUM ACETATE]: the GI50 in the test on SF-268 is 0.369 µM (active); in the test with U-251 it was 1.32 µM (inactive); with MOLT-4 it was 0.241 µM (active); with UACC-62, 15.3 µM (inactive); in the test on SNB-19, 0.904 µM (active); in the test with CAKI-1 it was 47.4 µM (inactive). In addition, the GI50 in the test on SF-539 was 12 µM (inactive); in the test with OVCAR-4, 38.3 µM (inactive); in the test on HL-60, 19 µM (inactive); in the test with HCT-116, 20.2 µM (inactive); in the test with PC-3, 28.4 µM (inactive); in the test with DLD-1, 57.7 µM (inactive). The GI50 in the test on NCI/ADR-RES is 61.7 µM (inactive); in the test on NCI-H522, 4.31 µM (inactive); in the test on M14, 1.08 µM (active); in the test with SNB-78 it was 61.9 µM (inactive); in the test with MCF7, 8.75 µM (inactive); in the test on HOP-62, 4.06 µM (inactive). Besides, the GI50 in the test on LOX IMVI was 31 µM (inactive); in the test on MDA-MB-435, 48.9 µM (inactive).
In the case of `O=C(NC1C2CC3CC(C2)CC1C3)c1cc(/C=C/c2ccccc2)nc(S)n1` (centres undefined), the GI50 in the test on SF-268, in the test with U-251, in the test with MOLT-4, with UACC-62, with SNB-19 and in the test on CAKI-1 was > 100 µM (inactive) throughout. The GI50 with SF-539, with OVCAR-4, in the test on HL-60, in the test on HCT-116, in the test on DLD-1 and with NCI-H522 was > 100 µM (inactive) in each case. For the same compound, the GI50 in the test on M14, in the test on SNB-78, in the test on HOP-62 and in the test on LOX IMVI was > 100 µM (inactive) throughout.
With `c1ccc2c(c1)SC1Sc3ccccc3[S+]21` (centres undefined), the GI50 in the test on SF-268 was 18.5 µM (inactive); with U-251, 20.6 µM (inactive); in the test on MOLT-4 it was 13.4 µM (inactive); in the test on UACC-62, 17.2 µM (inactive); in the test on SNB-19, > 81.1 µM (inactive); in the test with CAKI-1, 17.8 µM (inactive). Besides, the GI50 was 23.2 µM (inactive) in the test with SF-539; 41.3 µM (inactive) in the test with OVCAR-4; 19.8 µM (inactive) in the test with HL-60; 22.7 µM (inactive) in the test with HCT-116; 28.3 µM (inactive) in the test with PC-3; 19.9 µM (inactive) with NCI/ADR-RES. For the same compound, the GI50 with NCI-H522 is 6.53 µM (inactive); in the test with M14 it was 21.5 µM (inactive); with MCF7 it was 25.1 µM (inactive); with HOP-62, 31.6 µM (inactive); in the test with LOX IMVI, 18.5 µM (inactive); with MDA-MB-435, 18.8 µM (inactive).
`C#CCn1c(=O)c(C#N)c(O)c2cc3ccccc3nc21`: the GI50 in the test with SF-268 was > 31.6 µM (inactive); in the test with MOLT-4, > 100 µM (inactive); in the test with UACC-62 it was > 100 µM (inactive); in the test on SNB-19, > 100 µM (inactive); in the test on CAKI-1, > 100 µM (inactive); in the test on OVCAR-4, > 10 µM (inactive). Besides, the GI50 with HL-60, in the test with HCT-116, in the test on DLD-1, with NCI/ADR-RES, in the test with NCI-H522 and in the test on SNB-78 was > 100 µM (inactive) throughout. In addition, the GI50 in the test with MCF7, in the test on HOP-62 and with LOX IMVI was > 100 µM (inactive) in each case.
